Measurements reported in PMC4834746 (Anesthesiology and Pain Medicine, 2016).
Entries after “also recorded” stand apart in the source; their conditions may differ. Counter-ions that a name gives are not always drawn. Like-named read-outs stand apart in the source and are kept apart here.

What was measured:
[1] = format: in vivo, rat
[2] = AM404 concentration in rat plasma after oral administration of acetaminophen; format: in vivo; details: oral 20 mg/kg acetaminophen, data not shown
[3] = format: in vivo, rat; details: for half-life: t1/2, rat plasma
[4] = male, Crl:CD(SD), rat, brain, po, 20 mg/kg
[5] = male, Crl:CD(SD), rat, plasma, po, 20 mg/kg
[6] = male, Crl:CD(SD), rat, plasma, po, 20 mg/kg, oral 20 mg/kg acetaminophen, mean
[7] = rat plasma, oral 20 mg/kg acetaminophen, mean, 20 mg/kg
[8] = rat plasma, oral 20 mg/kg acetaminophen, mean

| Structure (SMILES) | AUC(0-t) [3, 5] [ng·h/mL] | Cmax [3, 5] [ng/mL] | k el [3, 5] [s⁻¹] | half-life [3, 6] [min] | t1/2 [3, 7] [min] | AUC0-2h [3, 8] [µg·h/g] | Cmax [3, 8] [µg/g] | Kel [3, 8] [h⁻¹] | t1/2 [3, 8] [min] | tmax [3, 8] [min] | also measured |
| --- | --- | --- | --- | --- | --- | --- | --- | --- | --- | --- | --- |
| CCCCC/C=C\C/C=C\C/C=C\C/C=C\CCCC(=O)Nc1ccc(O)cc1 [AM404, N-(4-hydroxyphenyl) arachidonamide] | – | – | – | – | – | – | – | – | – | – | conversion rate of acetaminophen to AM404 ([1]; calculated using AUC0-2h, oral 20 mg/kg acetaminophen, rat): 0.0013%; half-life [1, 4]: 18.3 min; k el [1, 4]: 0.000631 s⁻¹; AUC0-2h ([1]; rat brain, oral 20 mg/kg acetaminophen, mean): 117 pg·h/g; concentration of AM404 in plasma [2]: undetectable; also recorded: unable to detect |
| CC(=O)Nc1ccc(O)cc1 [APAP, Acetaminophen, reference compound] | 8960 | 15800 | 0.000644 | 17.9 | – | – | – | – | – | – | – |
| CC(=O)Nc1ccc(O[C@@H]2O[C@H](C(=O)O)[C@@H](O)[C@H](O)[C@H]2O)cc1 [Glu, acetaminophen glucuronide] | 7990 | 9300 | 0.000533 | 25 | 21.7 | – | – | – | – | – | tmax [3, 5]: 15 min |
| CC(=O)Nc1ccc(O)c(SC[C@H](NC(C)=O)C(=O)O)c1 [Mer, acetaminophen mercapturate acid] | – | – | – | – | – | 0.167 | 0.154 | 0.890 | 46.7 | 30 | – |
| CC(=O)Nc1ccc(OS(=O)(=O)O)cc1 [Sul, acetaminophen sulfate] | – | – | – | – | 25 | 22.2 | 21.7 | 1.67 | – | 15 | – |
| CC(=O)Nc1ccc(O)c(SC[C@H](N)C(=O)O)c1 [Sys, Acetaminophen cysteine] | – | – | – | – | – | 0.251 | 0.258 | 1.44 | 29 | 30 | – |
